Source: patent US8414885B2, “Methods and compositions for treating cancer” (priority 2009, dated 2013)
Peptide text beside a SMILES is read from it. * marks the point of attachment. Cbz = O=C(OCc1ccccc1)*; CH2F = FC*

Columns and labels:
A375 cells = assay: EtHD cell death with or without protease inhibitors, A375; assay type: cell-based, human; conditions: A375, delta-PK moi=0.5, 72 hrs p.i.; PD150606 100 μM or z-VAD-fmk 20 μM
Procedure: FIG. 7. Delta-PK induced melanoma cell death is both calpain and caspase-dependent. A. A2058 cells were infected with delta-PK (moi=0.5) or mock-infected with PBS and cultured without or with PD150606 (100 μM), z-VAD-fmk (20 µM) or both PD150606 and z-VAD-fmk. DMSO (28 mM) was used as vehicle control. Replicate cultures (n=3) were stained with EtHD at various times p.i. and the % staining cells calculated. B. A375 cells were infected with delta-PK (moi=0.5) in the absence or presence of inhibitors and stained with EtHD+. Delta-PK infected WI-38 cells and mock infected DMSO treated cells served as controls.
Cell death was determined by trypan blue exclusion and staining with ethidium homodimer-1 (EtHD), a cell impermeable red fluorescent nuclear stain that increases intensity after binding to the DNA of dead cells. […] Dead cells were counted by four independent hemacytometer counts. […] Stained cells were counted in five randomly selected 3 mm^2 fields (≧250 cells each), and the % positive cells was calculated relative to total number of cells imaged by phase contrast microscopy (Gober M D, Laing J M, Thompson S M, Aurelian L. The growth compromised HSV-2 mutant DeltaRR prevents kainic acid-induced apoptosis and loss of function in organotypic hippocampal cultures. Brain Res 2006; 1119: 26-39). […]

[1] = test system: melanoma cultures (A2058, MeWo, SM, A375); assay: Virus growth by plaque assay (burst size) in melanoma cultures; assay type: cell-based, human; conditions: delta-PK infected melanoma cultures
Procedure: FIG. 3. Delta-PK is a growth-restricted replication competent oncolytic virus. A. Vero cells were infected with HSV-2, delta-PK, or HSV-2(R) (moi=0.5) in serum-free medium and virus titers were determined by plaque assay. Results are expressed as mean pfu/cell (burst size). B. A2058, MeWo, SM, A375 and Wi-38 cells were infected with delta PK and examined for virus growth. […] C. Delta-PK infected A2058 and WI-38, cells were stained with Alexafluor-488 labeled ICP10 and Alexafluor-594 labeled VP5 antibodies in double immunofluorescence. Cells were counted in 3 randomly selected fields (≧250 cells) and the % staining cells calculated relative to total cells identified by DAPI staining. Quantitative results are shown for A2058 cell at 4-72 hrs p.i., and for WI-38 cells at 48 hrs p.i. Similar results were obtained for the partially purified virus.
To measure virus replication in culture, cells were infected at a multiplicity of infection (moi) of 0.5 pfu/cell. Adsorption was for 1 hr at 4 degrees C. (synchronized infection). […] Virus titers were determined by plaque assay on Vero cells and the results are expressed as mean pfu/cell (burst size), as described (Li B, Smith C C, Laing J M, Gober M D, Liu L, Aurelian L. Overload of the heat-shock protein H11/HspB8 triggers melanoma cell apoptosis through activation of transforming growth factor-beta-activated kinase 1. Oncogene 2007; 26: 3521-3531). […]

Structure (SMILES) | % EtHD+ cells in delta-PK infected cultures in presence of inhibitor (A375 cells) | effect of inhibitor on virus growth [1]
O=C(O)/C(S)=C/c1ccc(I)cc1 [PD150606] | 49.1+/−2.5% | neither PD150606, nor z-VAD-fmk had any effect
COC(=O)C[C@H](NC(=O)[C@H](C)NC(=O)[C@@H](NC(=O)OCc1ccccc1)C(C)C)C(=O)CF [z-VAD-fmk, benzyloxcarbonyl-Val-Ala-Asp-fluormethyl ketone] (Cbz-Val-Ala-Asp(OMe)-CH2F) | 49.6+/−3.7% | neither PD150606, nor z-VAD-fmk had any effect
